Experimental data: US12377083B2 (WUHAN LL SCIENCE AND TECHNOLOGY DEVELOPMENT CO., LTD., priority 2019, dated 2025)

Key:
[1] = target: hLPAR1 (human lysophosphatidic acid receptor 1) (Homo sapiens, UniProt Q92633); experiment: FLIPR assay of intracellular calcium increase induced by activation of hLPAR1 expressed in CHO-K1 cells; type: cell-based; settings: CHO-K1 cells expressing hLPAR1, agonist oleoyl-L-α-lysophosphatidic acid 1 μM; read-out: LPAR1 IC50
Summary of the method: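 CHO-K1 cells expressing hLPAR1 were loaded with Fluo-4 AM for 1.0 h at 37° C, then preincubated 30 min at room temperature with compound. Oleoyl-LPA was added at 1 μM final, and calcium fluorescence was recorded by FLIPR for 2 min at 1-s intervals to assess antagonism.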

[2] = system: A2058 (human melanoma cells); experiment: A2058 cell scratch (migration) assay with LPA; type: cell-based; settings: 10 μM LPA, scratch area at 24 h
HepG2 cells = experiment: In vitro cytotoxicity assay in HepG2 cells, CCK-8 method; type: cell-based; settings: 48 h
Summary of the method: (§1)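 Cells plated at 50,000/well, grown overnight to 80-90% confluence, then given fresh medium with graded compound or DMSO for 48 h at 37°C, 5% CO2. After PBS washes, CCK-8 added for 1.5 h at 37°C in the dark; OD450 read and CC50 calculated.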

[3] = as above; type: cell-based; settings: human
Summary of the method: as §1

[4] = In vitro metabolic stability, human liver microsomes; type: in vitro ADME; settings: 1 mg/mL liver microsome protein, 37° C., read-out: Metabolism in human liver microsome T½ min
Protocol: (§2) The in vitro metabolic stability of the compounds disclosed herein was determined through incubation of liver microsomes of various species. A proper amount of test compound was added into a liver microsome reaction system (1 mg/mL liver microsome protein, 25 U/mL glucose-6 phosphate dehydrogenase, 1 mM NADP, 6 mM D-glucose 6-phosphate and 5 mM MgCl2), and then the mixture was incubated in a water bath kettle at 37° C. to start reaction. At each time point, 100 μL of the reaction system was added into a centrifuge tube containing 400 μL of internal standard working solution (containing a 200 ng/mL solution of dexamethasone, diclofenac, tolbutamide and labetalol in acetonitrile) precooled at 0° C. so as to stop the reaction, and the mixture was then centrifuged at 10,000 g for 10 min at 4° C. The supernatant was collected for LC-MS assay so as to obtain the values of in vitro metabolic half-life of the test compounds in liver microsomes of various species.

[5] = In vitro metabolic stability, rat liver microsomes; type: in vitro ADME; settings: 1 mg/mL liver microsome protein, 37° C., read-out: Metabolism in rat liver microsome T½ min
Protocol: as §2

[6] = In vitro metabolic stability, mouse liver microsomes; type: in vitro ADME; settings: 1 mg/mL liver microsome protein, 37° C., read-out: Metabolism in mouse liver microsome T½ min
Protocol: as §2

Sequence of hLPAR1 (human lysophosphatidic acid receptor 1) (Q92633 whole entry): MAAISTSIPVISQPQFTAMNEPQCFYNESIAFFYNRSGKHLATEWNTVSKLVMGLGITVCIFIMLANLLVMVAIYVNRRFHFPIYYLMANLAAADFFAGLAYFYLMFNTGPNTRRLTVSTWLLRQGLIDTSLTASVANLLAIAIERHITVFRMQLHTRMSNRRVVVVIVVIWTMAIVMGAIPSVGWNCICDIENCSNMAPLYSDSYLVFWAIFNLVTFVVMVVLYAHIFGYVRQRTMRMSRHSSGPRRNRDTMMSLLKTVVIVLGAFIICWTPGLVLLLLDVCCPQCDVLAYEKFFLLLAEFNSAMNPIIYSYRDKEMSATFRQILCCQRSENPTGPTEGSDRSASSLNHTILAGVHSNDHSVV

Structure (SMILES)	IC50 [1] [µM]	Cell migration inhibition rate (%) [2]	CC50 (HepG2 cells) [µM]	CC50 at 48 h [3] [µM]	half-life [4] [h]	half-life [5] [h]	half-life [6] [h]
CN(C(=O)OCc1c(-c2ccc(O[C@H]3CCC[C@H](C(=O)O)C3)cn2)ncn1C)C1CCCC1 (racemic) [Compound 19, (+/−)-(1S,3S)-3-((6-(5-(((cyclopentyl(methyl)carbamoyl)oxy)methyl)-1-methyl-1H-imidazol-4-yl)pyridin-3-yl)oxy)cyclohexane-1-carboxylic Acid]	0.3 to 10	C (C: 0-30%)	> 200	–	–	–	–
CN(C(=O)OCc1c(-c2ccc(O[C@H]3CCC[C@H](C(=O)O)C3)c(F)n2)cnn1C)C1CCCC1 (racemic) [Compound 62, (+/−)-(1S,3S)-3-((6-(5-(((cyclopentyl(methyl)carbamoyl)oxy)methyl)-1-methyl-1H-pyrazol-4-yl)-2-fluoropyridin-3-yl)oxy)cyclohexane-1-carboxylic Acid]	< 0.05	A (A: 50-70%)	–	> 200	> 0.5	~0.5	> 0.5
CN(C(=O)OCc1c(-c2ccc(O[C@H]3CCC[C@H](C(=O)O)C3)c(C(F)F)n2)cnn1C)C1CCCC1 (racemic) [Compound 63, (+/−)-(1S,3S)-3-((6-(5-(((cyclopentyl(methyl)carbamoyl)oxy)methyl)-1-methyl-1H-pyrazol-4-yl)-2-(difluoromethyl)pyridin-3-yl)oxy)cyclohexane-1-carboxylic Acid]	< 0.05	B (B: 30-50%)	–	> 200	6.43	0.749	8.96
CN(C(=O)OCc1c(-c2ccc(O[C@H]3CCC[C@H](C(=O)O)C3)c(CF)n2)cnn1C)C1CCCC1 (racemic) [Compound 89]	0.05 to 0.3	A (A: 50-70%)	–	14.3	7.48	0.958	61.2
